The text below walks through data of paper PMC10302582, “Unveiling the Potential of BenzylethyleneAryl–Urea Scaffolds for the Design of New Onco Immunomodulating Agents” (Pharmaceuticals, 2023).

pIC50: −log10 of the molar value. Read-outs that look alike come from different tables or passages of the source.

The test system of data set [1] is HT-29 (colon adenocarcinoma). Put plainly: MTT cell proliferation assay, HT-29. As to conditions: Homo sapiens, read-out: IC50 HT-29. Type of data set: cell-based. On the procedure:
After the supernatant was discarded, we solved the formazan crystal in 100 µL of DMSO. The absorbance was then registered at 550 nm using a plate lector. For all concentrations of any compound, cell viability was expressed as the percentage of the ratio between the mean absorbance of the treated cells and the mean absorbance of the untreated cells. Three to five experiments were performed to establish the IC50 values (i.e., concentration half inhibiting cell proliferation, we used GraphPad Prism 7 software).
(In general: Tetrazolium assays rely on reduction of a dye to a coloured formazan, in cell work by metabolically active cells.)

Data set [2] deals with human microvessel endothelial cells (HMEC-1). The experiment in a line: MTT cell proliferation assay, HMEC-1. Type of data set: cell-based. As to conditions: Homo sapiens. On the procedure: (§1) The action on cell proliferation caused by our developed compounds was studied using an MTT assay using the human tumor cell lines of HT-29 (colon adenocarcinoma) and A-549 (pulmonary adenocarcinoma), as well as toward the non-tumor cell line HEK-293 (human embryonic kidney cells), Jurkat T-cells and human microvessel endothelial cells (HMEC-1).
(§2) In general, 5 × 10^3 (HT-29, A549, HMEC-1, Jurkat and HEK-293) cells per well were seeded in 96-well plates with 1:1 dilutions of the compounds in a volume of 100 μL of the cell media. The 3-(4,5-dimethylthiazol-2-yl)-2,5-diphenyltetrazolium bromide (MTT; Sigma Chemical Co.) dye exclusion assay was performed, and after 48 h (37 °C, 5% CO2 in a humid atmosphere), 10 μL of MTT (5 mg/mL in phosphate-buffered saline, PBS) was added to each well and incubated for 3 h at 37 °C. After the supernatant was discarded, we solved the formazan crystal in 100 µL of DMSO. The absorbance was then registered at 550 nm using a plate lector. For all concentrations of any compound, cell viability was expressed as the percentage of the ratio between the mean absorbance of the treated cells and the mean absorbance of the untreated cells. Three to five experiments were performed to establish the IC50 values (i.e., concentration half inhibiting cell proliferation, we used GraphPad Prism 7 software).

Data set [3] deals with HT-29 cells co-cultured with THP-1. The experiment in a line: Cancer cell proliferation in co-cultures of HT-29 and THP-1. The conditions noted are these: 100 μM. Type of data set: cell-based, human. On the procedure:
To establish the potential of the selected compounds as immunomodulator agents, we studied the effect of the selected compounds on HT-29 cell proliferation when co-cultured with human monocytic leukemia cell line THP-1. For the study, we used different proportions of cancer and immune cells. Standard protocol proportions were 1:5 cancer/immune cells. We include a test using a 2:1 proportion of HT-29 cells to THP-1 cells. The tests were performed for two periods of time: 24 and 48 h, using 100 μM doses of the selected compounds and BMS-8 as the reference compound.
To determine the action of the compounds on cancer cell proliferation in co-culture with immune cells, 10^5 or 2 × 10^5 of the HT-29 cells line were seeded in each well of 12-well plates and left at 37 °C for 24 h. Then, the cancer cells were treated with IFN-γ (10 ng/mL; human, Invitrogen®, Waltham, MA, USA) containing 5 × 10^5 or 10^5, respectively, of THP-1 cells per well and the corresponding compound at 100 μM or DMSO for the positive control. After 24 h/48 h of incubation, the supernatants were collected to establish the alive THP-1 cells using FSC and SCC flow cytometry. In addition, cancer cells were collected with trypsin, fixed with 4% in PBS paraformaldehyde and counted using flow cytometry.

In data set [4] the test system is HEK-293 (human embryonic kidney cells). The experiment in a line: MTT cell proliferation assay, HEK-293. Type of data set: cell-based. As to conditions: HEK293, 48 h treatment. On the procedure:
as §1, §2

Data set [5] deals with CD11b. Put plainly: CD11b detection on membrane of co-cultured THP-1. It is filed as cell-based, human. The conditions noted are these: for % CD11b expression in membrane of THP-1: 1:5 HT-29/THP-1, 24 h, relative to non-treated co-cultured THP-1; for reduction of CD11b expression: THP-1 co-cultured with HT-29. The text has this: (§3) Reducing the expression of CD11b has become a promising target for immune modulation in anticancer therapies. For that reason, we decided to study the effect of our compounds on CD11b in THP-1 cells co-cultured with HT-29. We also determined the relative amount of CD80, a common surface marker for monocytes.
(§4) The results are related to non-treated THP-1 cells when they were co-cultured with HT-29.
(§5) The action of the compounds on CDs in co-cultured THP-1 immune cells with cancer cell line HT-29 was tested by treating them with the compounds for 24 h/48 h (see Section 4.2.5). Surface CD11b and CD80 was determined by collecting THP-1 with trypsin, fixing with formaldehyde and staining with FITC Mouse monoclonal Anti-Human CD80 (Sigma-Aldrich SAB4700142) and Alexa Fluor® 647 Rabbit monoclonal Anti-CD11b (Merck #MABF366, Rahway, NJ, USA).

For data set [6], the system named is HMEC-1 endothelial cells. The experiment in a line: Microvessel formation inhibition assay on Matrigel. The conditions noted are these: HMEC-1 on Matrigel. It is filed as cell-based, human. On the procedure:
The antiangiogenic action of the selected compounds, as well as the reference compounds, was evaluated by determining the effect on the formation of new microvessels formed by HMEC-1 endothelial cells on a Matrigel matrix.
We used IBIDI μ-slide angiogenesis plates (IBIDI, Martins ried, Germany). The wells were coated with 15 μL of Matrigel® (10 mg/mL, BD Biosciences, San Jose, CA, USA) at 4 °C and incubated at 37 °C for at least 30 min. Afterward, the HMEC-1 cells were seeded at 2 × 10^4 cells/well in 25 μL of medium and were left for 30 min at 37 °C while they attached. Then, the compounds were added in serial doses in 25 μL of the medium, and after several hours (maximum 24 h) of incubation at 37 °C, pictures for the wells were taken to evaluate the formation of microvessels.

Data set [7] concerns Jurkat T-cells. Put plainly: MTT cell proliferation assay, Jurkat T-cells. It is filed as cell-based. The conditions noted are these: Homo sapiens, Jurkat, 48 h treatment. On the procedure:
as §1, §2

For data set [8], the system named is CD80. The experiment in a line: CD80 detection on membrane of co-cultured THP-1. It is filed as cell-based, human. As to conditions: 1:5 HT-29/THP-1; 24 h; relative to non-treated co-cultured THP-1.
Text: as §3, §4, §5

As usually defined, the pIC50 is −log10 of the IC50, conventionally taken in molar units. For orientation: melting point means the temperature, or range, at which the solid turns liquid. With `COc1ccc(CCCc2cccc(NC(=O)Oc3ccccc3)c2)cc1` [C.1], the melting point lay in the range of 89 to 91 °C. Further, the pIC50 in data set [1] (HT-29, 48 h) is < 4.00. In addition, the negative logarithm of the IC50 (pIC50) in data set [2] (HMEC-1, 48 h treatment) was < 4.00. Also, the “HT-29 cancer cell proliferation in co-culture” value (from here on “HT-29 cancer cell proliferation”) in data set [3] (1:5 HT-29/THP-1, 24 h) was determined as 48 ± 8. The “HT-29 cancer cell proliferation” value in [3] (1:5 HT-29/THP-1, 48 h) is listed as 52 ± 3. Further, in data set [3] (2:1 HT-29/THP-1, 24 h), the “HT-29 cancer cell proliferation” value was found to be 70 ± 8. Further, in data set [3] (2:1 HT-29/THP-1, 48 h), the “HT-29 cancer cell proliferation” value is given as 66 ± 8. Besides, the pIC50 in data set [4] was < 4.00. For the same compound, the “% CD11b expression in membrane of THP-1” value in data set [5] was 79 ± 9%. In addition, the “Minimum Active Conc. inhibiting microtube formation” value in data set [6] worked out at 5 µM. In addition, the pIC50 in data set [7] was < 4.00. In data set [8], the “% CD80 expression in membrane of THP-1” value was found to be 96 ± 1%.
`COc1ccc(CCCc2cccc(NC(=O)Nc3ccc(F)cc3)c2)cc1` [C.3] had a melting point of 181 to 183 °C. In addition, in [1] (HT-29, MTT, 48 h treatment), the negative-log IC50 (pIC50) was < 4.00. The negative-log IC50 (pIC50) in data set [2] (HMEC-1, 48 h, 48 h treatment) is < 4.00. Moreover, in [3] (1:5 HT-29/THP-1, 24 h), the “HT-29 cancer cell proliferation” value worked out at 78 ± 8. The “HT-29 cancer cell proliferation” value in data set [3] (1:5 HT-29/THP-1, 48 h) is 64 ± 3. In addition, in data set [3] (2:1 HT-29/THP-1, 24 h), the “HT-29 cancer cell proliferation” value was found to be 67 ± 9. Besides, the “HT-29 cancer cell proliferation” value in data set [3] (2:1 HT-29/THP-1, 48 h) is 57 ± 5. Further, the negative logarithm of the IC50 (pIC50) in data set [4] was < 4.00. In data set [5], the “% CD11b expression in membrane of THP-1” value came out at 67 ± 22% and the “reduction of CD11b expression” value is reported as “about 35%”. In addition, the “Minimum Active Conc. inhibiting microtube formation” value in data set [6] was 50 µM. Besides, the pIC50 in [7] (48 h) was < 4.00. The “% CD80 expression in membrane of THP-1” value in [8] was found to be 93 ± 2%.
`COc1ccc(CCCc2cccc(NC(=O)Nc3ccc(OC)cc3)c2)cc1` [C.12] had a melting point of 181 to 183 °C. The pIC50 in [1] (HT-29, MTT, 48 h treatment) is < 4.00. For the same compound, in data set [2] (HMEC-1, 48 h, 48 h treatment), the pIC50 was < 4.00. The “HT-29 cancer cell proliferation” value in [3] (1:5 HT-29/THP-1, 24 h) amounted to 84 ± 2. In addition, the “HT-29 cancer cell proliferation” value in data set [3] (1:5 HT-29/THP-1, 48 h) is 67 ± 11. Also, in data set [3] (2:1 HT-29/THP-1, 24 h), the “HT-29 cancer cell proliferation” value came out at 93 ± 8. The “HT-29 cancer cell proliferation” value in [3] (2:1 HT-29/THP-1, 48 h) is listed as 89 ± 10. For the same compound, the negative-log IC50 (pIC50) in data set [4] is < 4.00. The “% CD11b expression in membrane of THP-1” value in data set [5] is recorded as 73 ± 4%. Further, in data set [6], the “Minimum Active Conc. inhibiting microtube formation” value was found to be 20 µM. The negative-log IC50 (pIC50) in [7] (48 h) is < 4.00. For the same compound, in data set [8], the “% CD80 expression in membrane of THP-1” value stood at 89 ± 2%.
In the case of `COc1ccc(CCCc2cccc(NC(=O)Nc3ccccc3OC)c2)cc1` [C.14], the melting point lay within 82 to 85 °C. Also, in data set [1] (HT-29, MTT, 48 h treatment), the pIC50 was < 4.00. Also, the negative-log IC50 (pIC50) in [2] (HMEC-1, 48 h, 48 h treatment) was < 4.00. In addition, the “HT-29 cancer cell proliferation” value in [3] (1:5 HT-29/THP-1, 24 h) came out at 64 ± 14. Also, the “HT-29 cancer cell proliferation” value in data set [3] (1:5 HT-29/THP-1, 48 h) came to 68 ± 8. Moreover, the “HT-29 cancer cell proliferation” value in data set [3] (2:1 HT-29/THP-1, 24 h) stood at 82 ± 7. Also, the “HT-29 cancer cell proliferation” value in data set [3] (2:1 HT-29/THP-1, 48 h) amounted to 58 ± 5. Besides, in data set [4], the pIC50 was < 4.00. For the same compound, in data set [5], the “% CD11b expression in membrane of THP-1” value worked out at 66 ± 3% and the “reduction of CD11b expression” value was “about 35%”. In addition, in [6], the “Minimum Active Conc. inhibiting microtube formation” value is reported as >100 µM. For the same compound, the negative-log IC50 (pIC50) in data set [7] (48 h) is < 4.00. In addition, in data set [8], the “% CD80 expression in membrane of THP-1” value amounted to 92 ± 1%.
